Assay results from US4803066A, “Antibacterial and/or antifungal compositions for topical application” (Smith & Nephew Associated Companies p.l.c., priority 1986, dated 1989).
Converted amounts (≈) assume the structure as drawn.

Tests used:
C. albicans V = assay: MIC of agents individually and in combination (broth, microtitre plate); settings: Candida albicans, read-out: MIC: Individual Agents
Protocol: (§1) The test method employed was as follows suspensions of each agent or combination of agents were prepared at a range of dilutions in 60% propylene glycol in water. Isosensitest (trade mark) broth was inoculated with a test organism at a concentration of 10^5 organisms per ml and a sample was dispensed into wells of a microliter plate. The range of concentration of test substance or combination was added to the wells so that there was a further 10-fold dilution of the test substance or combination. The plates were incubated for either 24 or 48 hours at 37° C., and the MIC read as the lowest concentration giving no visible growth. For each organism tested all conditions of inoculum preparation, inoculation and incubation were standardised throughout.

Staph. aureus 1300 = assay: microbe, parasite or virus in culture; settings: Staphylococcus aureus, 1300, read-out: MIC: Individual Agents
Protocol: as §1

C. albicans V ATCC 10231 = assay: MIC of silver nitrate and clotrimazole individually and in combination (broth, microtitre plate); type: cell-based, Candida albicans; settings: for MIC: Combination of Agents, Clotrimazole: in combination with silver nitrate; for MIC: Combination of Agents, Clotrimazole / MIC: Individual Agents / MIC: Combination of Agents, Silver nitrate: C. albicans V ATCC 10231; for MIC: Individual Agents: alone; for MIC: Combination of Agents, Silver nitrate: in combination with clotrimazole
Protocol: as §1

Enterococcus 0022 = assay: microbe, parasite or virus in culture; settings: Enterococcus, 0022, read-out: MIC: Individual Agents
Protocol: as §1

C. albicans I = assay: microbe, parasite or virus in culture; settings: Candida albicans, read-out: MIC: Individual Agents
Protocol: as §1

C. albicans 159 = assay: microbe, parasite or virus in culture; settings: Candida albicans, 159, read-out: MIC: Individual Agents
Protocol: as §1

Staph. aureus NCTC 10788 = assay: microbe, parasite or virus in culture; settings: Staphylococcus aureus, NCTC10788, read-out: MIC: Individual Agents
Protocol: as §1

Staph. aureus = assay: microbe, parasite or virus in culture; settings: Staphylococcus aureus, read-out: MIC: Individual Agents
Protocol: as §1

E. Coli 0029 = assay: microbe, parasite or virus in culture; settings: Escherichia coli, read-out: MIC: Individual Agents
Protocol: as §1

SMILES	MIC (C. albicans V) [µg/mL]	MIC (Staph. aureus 1300) [µg/mL]	MIC (C. albicans V ATCC 10231; Candida albicans, ATCC10231, read-out: MIC: Individual Agents) [µg/mL]	MIC: Combination of Agents, Clotrimazole (C. albicans V ATCC 10231; Table 3) [µg/mL]	MIC: Individual Agents (C. albicans V ATCC 10231; Table 4) [µg/mL]	MIC: Combination of Agents, Clotrimazole (C. albicans V ATCC 10231; Table 4) [µg/mL]	MIC (Enterococcus 0022) [µg/mL]	MIC (C. albicans I) [µg/mL]	MIC (C. albicans 159) [µg/mL]	MIC (Staph. aureus NCTC 10788) [µg/mL]	MIC (Staph. aureus) [µg/mL]	MIC (E. Coli 0029) [µg/mL]	MIC: Individual Agents (C. albicans V ATCC 10231; Table 3) [µg/mL]	MIC: Combination of Agents, Silver nitrate (C. albicans V ATCC 10231; Table 3) [µg/mL]	MIC: Combination of Agents, Silver nitrate (C. albicans V ATCC 10231; Table 4) [µg/mL]
Clc1ccccc1C(c1ccccc1)(c1ccccc1)n1ccnc1 [Clotrimazole, 1-{(2-chlorophenyl)diphenylmethyl}-1H-imidazole]	0.5	100 (≈ 290 µM)	12.5	3.125	12.5	3.125	100 (≈ 290 µM)	5 (≈ 14.5 µM)	25 (≈ 72.5 µM)	100 (≈ 290 µM)	–	–	–	–	–
Clc1ccc(COC(Cn2ccnc2)c2ccc(Cl)cc2Cl)c(Cl)c1 (centres unmarked) [Miconazole nitrate, 1-{2-(2,4-dichlorophenyl)-2-[(2,4-dichlorophenyl)methoxy]ethyl}-1H-imidazole]	62.5	–	–	–	–	–	–	–	–	–	> 500	> 500	–	–	–
O=[N+]([O-])[O-].[Ag+] [Silver nitrate, silver nitrate]	–	–	–	–	25	–	–	–	–	–	–	–	25	6.25	6.25
